Assay results reported in ChEMBL document CHEMBL1152074, “Synthesis and antimalarial evaluation of 2,3,5-trioxabicyclo[2.2.2]octanes, models for the putative pharmacophore of qinghaosu (artemisinin)” (Bioorg Med Chem Lett, 1992).
In brackets after ≈: the same amount, converted by molar mass.

Key:
Type in all cases: functional, organism-based
Plasmodium falciparum [1] = test: Inhibitory concentration (IC50) against chloroquine-resistant falciparum indochina W-2 in human malaria; 60-50000
Plasmodium falciparum [2] = test: Inhibitory concentration (IC50) against chloroquine-sensitive falciparum sierra leone […] in human malaria; 979-50000
Plasmodium falciparum [3] = test: Inhibitory concentration (IC50) against chloroquine-resistant falciparum Indochina W2 in human malaria
Plasmodium falciparum [4] = test: Inhibitory concentration (IC50) against chloroquine-sensitive falciparum sierra leone […] in human malaria
Plasmodium falciparum [5] = test: Inhibitory concentration IC50 against chloroquine-resistant falciparum indochina(W-2) malaria in humans; 7079-48759
Plasmodium falciparum [6] = test: Inhibitory concentration (IC50) against chloroquine-sensitive falciparum sierra leone […] in human malaria; 10000-46608
Plasmodium falciparum [7] = test: Inhibitory concentration (IC50) against chloroquine-sensitive falciparum sierra leone […] in human malaria; 9569-21648
Plasmodium falciparum [8] = test: Inhibitory concentration IC50 against chloroquine-resistant falciparum W-2 indochina human malaria; 8000-18088
[9] = Plasmodium falciparum, read-out: IC50

C1CC2OCC1OO2 (stereo unspecified)
IC50 (Plasmodium falciparum [1]): 0.06 µg/mL (≈ 0.517 µM) | IC50 (Plasmodium falciparum [2]): 0.979 µg/mL (≈ 8.43 µM)

C[C@H]1OC2CCC1OO2 (stereo partly specified)
IC50 (Plasmodium falciparum [3]; [9]): 13.1 µg/mL (≈ 101 µM) | IC50 (Plasmodium falciparum [4]): 8.46 µg/mL (≈ 65 µM)

CC12CCC(CO1)OO2 (stereo unspecified)
IC50 (Plasmodium falciparum [3]): > 100 µg/mL | IC50 (Plasmodium falciparum [4]): 50 µg/mL (≈ 384 µM)

C[C@@H]1OC2CCC1OO2 (stereo partly specified)
IC50 (Plasmodium falciparum [3]; [9]): 28.8 µg/mL (≈ 222 µM) | IC50 (Plasmodium falciparum [4]): 28.5 µg/mL (≈ 219 µM)

CO[C@]1(C)CC[C@@H](OO)CO1
IC50 (Plasmodium falciparum [5]): 7.08 µg/mL (≈ 43.6 µM) | IC50 (Plasmodium falciparum [6]): 10 µg/mL (≈ 61.7 µM)

COC1CCC(OO)CO1 (stereo unspecified)
IC50 (Plasmodium falciparum [3]; [9]): 1.05 µg/mL (≈ 7.06 µM) | IC50 (Plasmodium falciparum [4]): 0.472 µg/mL (≈ 3.19 µM)

COC1CCC(CO)OO1 (stereo unspecified)
IC50 (Plasmodium falciparum [3]; [9]): 0.454 µg/mL (≈ 3.06 µM) | IC50 (Plasmodium falciparum [4]): 0.531 µg/mL (≈ 3.58 µM)

CO[C@H]1CC[C@@H](OO)[C@@H](C)O1
IC50 (Plasmodium falciparum [7]): 9.57 µg/mL (≈ 59 µM) | IC50 (Plasmodium falciparum [8]): 8 µg/mL (≈ 49.3 µM)

CO[C@H]1CC[C@H](OO)[C@@H](C)O1
IC50 (Plasmodium falciparum [3]; [9]): 3.44 µg/mL (≈ 21.2 µM) | IC50 (Plasmodium falciparum [4]): 1.01 µg/mL (≈ 6.2 µM)

COC1CC[C@@H]([C@H](C)O)OO1 (stereo partly specified)
IC50 (Plasmodium falciparum [3]; [9]): 12.3 µg/mL (≈ 75.7 µM) | IC50 (Plasmodium falciparum [4]): 7.35 µg/mL (≈ 45.3 µM)

C[C@@H]1CC[C@H]2[C@@H](C)C(=O)O[C@@H]3O[C@@]4(C)CC[C@@H]1[C@]32OO4 [ARTEMISININ]
IC50 (Plasmodium falciparum [4]): 0.00202 µg/mL (≈ 0.00715 µM)
